Reference: patent US6440443B1, “Microencapsulation formulations of cadusafos” (priority 1998, dated 2002)

Tested on: root-knot nematode (RKN), Meloidogyne incognita
Experiment: Root-knot nematode control on tomato, pots infested 48 hours after soil treatment (set 1), gall rating
Type: in vivo
Details: rating scale 0-10
Protocol: Formulations AA to FF, excluding DD, were tested for efficacy and persistence in soil for controlling root-knot nematode (RKN), Meloidogyne incognita, on tomato. A three-week old tomato (Lycopersicon esculentum, var “Rutgers”) was planted in a 10 cm square pot containing a nonsterile 50:50 sand:soil mixture. Ten replicate pots (five replicates for two sets of tests) were prepared for each rate of application of test formulation. Stock dispersions of each of the test formulations were prepared by dispersing a sufficient amount of test material in 100 ml of water to give rates of application of 0.25, 0.5, 1, and 2 kg a.i./ha. Each pot received 10 ml of the appropriate suspension on the surface immediately around the tomato, and a control treatment for each of the two experimental set of pots received only water. Pots were also prepared as above with the same rates of the 100 ME cadusafos formulation and technical cadusafos. The RKN eggs used in the experiment were separated from a gelatinous matrix by vigorously shaking the roots of heavy galled tomato plants for four minutes in a 1% aqueous sodium hypochlorite solution. The resulting egg suspension was rapidly poured through nested 60, 325, and 500 mesh sieves. The eggs were collected on the 500 mesh sieve and gently rinsed with water to remove any excess sodium hypochlorite. The eggs were taken up in water, and the resulting aqueous suspension was appropriately diluted with water to give about 2000 eggs per plant which results in an effective inoculant level of about 1000 infective larvae per pot. The eggs were counted using a dissecting microscope. All the pots were infested with nematodes by pippetting the inoculum into the openings around the roots of the previously treated tomato transplants. Pots infested with nematodes 48 hours after soil treatment, hereafter referred to as “set 1”. Pots for examination of residual activity, hereafter referred to as “set 2”, were treated and maintained in the greenhouse for seven days prior to nematode infestations. Upon nematode infestation, the pots were maintained in the greenhouse for 28 days and monitored for phytotoxicity symptoms. At the conclusion of the 28 day period, the soil was washed away from the tomato plants roots and rated according to the following scheme: […]

Structure (SMILES): CCOP(=O)(SC(C)CC)SC(C)CC (stereo not shown) [Technical]
- Mean Root-Knot Gall Rating (infested 48 hours after treatment, rate 0.25 Kg/Ha): 2.4
- Mean Root-Knot Gall Rating (infested 48 hours after treatment, rate 0.5 Kg/Ha): 1.2
- Mean Root-Knot Gall Rating (second printing of Table 7, 48 hours after treatment, rate 0.25 Kg/Ha): 2.4
- Mean Root-Knot Gall Rating (second printing of Table 7, 48 hours after treatment, rate 0.5 Kg/Ha): 1.2
